Laboratory results: PubChem BioAssay (NCI)
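Compound exposure: 48 hours, 5 concentrations, 96-well plates. Abbreviation: GI50, concentration required for 50% inhibition of growth. TGI: total growth inhibition.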

Key:
Assay in all cases: inhibition of tumour cell growth, NCI panel, 48 h
[1] = test system: KM12 colon
[2] = test system: DU-145 prostate
[3] = test system: IGROV1 ovarian
[4] = test system: SK-OV-3 ovarian
[5] = test system: OVCAR-4 ovarian
[6] = test system: BT-549 breast
[7] = test system: A549 NSCLC
[8] = test system: HT29 colon
[9] = test system: 786-0 renal
[10] = test system: UO-31 renal
[11] = test system: T-47D breast
[12] = test system: PC-3 prostate
[13] = test system: SK-MEL-2 melanoma
[14] = test system: HOP-62 NSCLC
[15] = test system: A498 renal
[16] = test system: NCI/ADR-RES ovarian
[17] = test system: NCI-H460 lung
[18] = test system: HCT-15 colon
[19] = test system: RXF 393 renal
[20] = test system: MOLT-4 leukemia
[21] = test system: RPMI-8226 leukemia
[22] = test system: SF-539 CNS
[23] = test system: EKVX NSCLC
[24] = test system: SK-MEL-5 melanoma
[25] = test system: UACC-62 melanoma
[26] = test system: LOX IMVI melanoma
[27] = test system: OVCAR-5 ovarian
[28] = test system: COLO 205 colon
[29] = test system: CCRF-CEM leukemia
[30] = test system: MDA-MB-231 breast
[31] = test system: SNB-75 CNS
[32] = test system: OVCAR-8 ovarian
[33] = test system: OVCAR-3 ovarian
[34] = test system: MDA-MB-435
[35] = test system: K-562 leukemia
[36] = test system: MALME-3M melanoma
[37] = test system: SNB-19 CNS
[38] = test system: HCT-116 colon
[39] = test system: SF-295 CNS
[40] = test system: SW-620 colon
[41] = test system: UACC-257 melanoma
[42] = test system: NCI-H226 lung
[43] = test system: ACHN renal
[44] = test system: SK-MEL-28 melanoma
[45] = test system: SR leukemia
[46] = test system: TK-10 renal
[47] = test system: M14 melanoma
[48] = test system: MCF7 breast
[49] = test system: HOP-92 NSCLC
[50] = test system: NCI-H522 lung
[51] = test system: SF-268 CNS
[52] = test system: NCI-H23 lung
[53] = test system: CAKI-1 renal
[54] = test system: U251 CNS
[55] = test system: HL-60(TB) leukemia
[56] = test system: HS 578T breast
[57] = test system: HCC-2998 colon
[58] = test system: SN12C renal

Question: `Nc1nc(Cl)nc2c1ncn2C1OC(CO)C(O)C1O` (stereo unspecified) was tested. Which GI50 [1] did it give?
Answer: > 100 µM

Question: And the TGI [1]?
Answer: > 100 µM

Question: And the GI50 [2]?
Answer: 6.76 µM

Question: And the TGI [2]?
Answer: > 100 µM

Question: And the GI50 [3]?
Answer: > 100 µM

Question: And the TGI [3]?
Answer: > 100 µM

Question: And the GI50 [4]?
Answer: 7.5 µM

Question: And the TGI [4]?
Answer: > 100 µM

Question: And the GI50 [5]?
Answer: > 100 µM

Question: And the TGI [5]?
Answer: > 100 µM

Question: And the GI50 [6]?
Answer: 16.8 µM

Question: And the TGI [6]?
Answer: > 100 µM

Question: What about the GI50 [7] of the same compound?
Answer: 4.41 µM

Question: And the TGI [7]?
Answer: > 100 µM

Question: What about the GI50 [8] of the same compound?
Answer: > 93.3 µM

Question: What about the TGI [8] of the same compound?
Answer: > 100 µM

Question: What about the GI50 [9] of the same compound?
Answer: 2.57 µM

Question: And the TGI [9]?
Answer: > 73.4 µM

Question: And the GI50 [10]?
Answer: 3.32 µM

Question: What about the TGI [10] of the same compound?
Answer: > 100 µM

Question: What about the GI50 [11] of the same compound?
Answer: > 100 µM

Question: And the TGI [11]?
Answer: > 100 µM

Question: What about the GI50 [12] of the same compound?
Answer: > 100 µM

Question: And the TGI [12]?
Answer: > 100 µM

Question: And the GI50 [13]?
Answer: > 100 µM

Question: And the TGI [13]?
Answer: > 100 µM

Question: What about the GI50 [14] of the same compound?
Answer: 3.36 µM

Question: What about the TGI [14] of the same compound?
Answer: > 100 µM

Question: And the GI50 [15]?
Answer: > 64.4 µM

Question: And the TGI [15]?
Answer: > 100 µM

Question: And the GI50 [16]?
Answer: 0.579 µM

Question: What about the TGI [16] of the same compound?
Answer: > 100 µM

Question: And the GI50 [17]?
Answer: 12.6 µM

Question: And the TGI [17]?
Answer: > 100 µM

Question: And the GI50 [18]?
Answer: 7.57 µM

Question: And the TGI [18]?
Answer: > 100 µM

Question: And the GI50 [19]?
Answer: > 100 µM

Question: And the TGI [19]?
Answer: > 100 µM

Question: And the GI50 [20]?
Answer: 0.493 µM

Question: What about the TGI [20] of the same compound?
Answer: > 41.2 µM

Question: What about the GI50 [21] of the same compound?
Answer: > 100 µM

Question: And the TGI [21]?
Answer: > 100 µM

Question: What about the GI50 [22] of the same compound?
Answer: > 90.1 µM

Question: And the TGI [22]?
Answer: > 100 µM

Question: What about the GI50 [23] of the same compound?
Answer: > 96.8 µM

Question: What about the TGI [23] of the same compound?
Answer: > 100 µM

Question: And the GI50 [24]?
Answer: 2.89 µM

Question: What about the TGI [24] of the same compound?
Answer: > 100 µM

Question: What about the GI50 [25] of the same compound?
Answer: 5.7 µM

Question: And the TGI [25]?
Answer: > 100 µM

Question: And the GI50 [26]?
Answer: 15.2 µM

Question: And the TGI [26]?
Answer: > 100 µM

Question: And the GI50 [27]?
Answer: 86.9 µM

Question: And the TGI [27]?
Answer: > 100 µM

Question: And the GI50 [28]?
Answer: 5.76 µM

Question: And the TGI [28]?
Answer: > 100 µM

Question: And the GI50 [29]?
Answer: 0.264 µM

Question: What about the TGI [29] of the same compound?
Answer: > 100 µM

Question: And the GI50 [30]?
Answer: > 100 µM

Question: And the TGI [30]?
Answer: > 100 µM

Question: What about the GI50 [31] of the same compound?
Answer: > 100 µM

Question: What about the TGI [31] of the same compound?
Answer: > 100 µM

Question: And the GI50 [32]?
Answer: 0.403 µM

Question: And the TGI [32]?
Answer: > 100 µM

Question: What about the GI50 [33] of the same compound?
Answer: > 100 µM

Question: What about the TGI [33] of the same compound?
Answer: > 100 µM

Question: What about the GI50 [34] of the same compound?
Answer: 3.01 µM

Question: What about the TGI [34] of the same compound?
Answer: > 100 µM

Question: What about the GI50 [35] of the same compound?
Answer: > 85.3 µM

Question: What about the TGI [35] of the same compound?
Answer: > 100 µM

Question: What about the GI50 [36] of the same compound?
Answer: > 100 µM

Question: And the TGI [36]?
Answer: > 100 µM

Question: What about the GI50 [37] of the same compound?
Answer: 2.72 µM

Question: And the TGI [37]?
Answer: > 100 µM

Question: And the GI50 [38]?
Answer: 4.23 µM

Question: And the TGI [38]?
Answer: > 100 µM

Question: What about the GI50 [39] of the same compound?
Answer: > 100 µM

Question: What about the TGI [39] of the same compound?
Answer: > 100 µM

Question: What about the GI50 [40] of the same compound?
Answer: 36.1 µM

Question: What about the TGI [40] of the same compound?
Answer: > 100 µM

Question: And the GI50 [41]?
Answer: > 100 µM

Question: What about the TGI [41] of the same compound?
Answer: > 100 µM

Question: What about the GI50 [42] of the same compound?
Answer: > 100 µM

Question: And the TGI [42]?
Answer: > 100 µM

Question: What about the GI50 [43] of the same compound?
Answer: 3.98 µM

Question: And the TGI [43]?
Answer: > 100 µM

Question: What about the GI50 [44] of the same compound?
Answer: > 100 µM

Question: And the TGI [44]?
Answer: > 100 µM

Question: What about the GI50 [45] of the same compound?
Answer: 8.92 µM

Question: What about the TGI [45] of the same compound?
Answer: > 100 µM

Question: What about the GI50 [46] of the same compound?
Answer: > 100 µM

Question: And the TGI [46]?
Answer: > 100 µM

Question: What about the GI50 [47] of the same compound?
Answer: 0.999 µM

Question: And the TGI [47]?
Answer: 4.2 µM

Question: And the GI50 [48]?
Answer: 1.66 µM

Question: And the TGI [48]?
Answer: > 100 µM

Question: And the GI50 [49]?
Answer: 6.27 µM

Question: What about the TGI [49] of the same compound?
Answer: > 100 µM

Question: What about the GI50 [50] of the same compound?
Answer: > 100 µM

Question: What about the TGI [50] of the same compound?
Answer: > 100 µM

Question: What about the GI50 [51] of the same compound?
Answer: 10.7 µM

Question: And the TGI [51]?
Answer: > 100 µM

Question: And the GI50 [52]?
Answer: 4.08 µM

Question: And the TGI [52]?
Answer: > 100 µM

Question: What about the GI50 [53] of the same compound?
Answer: 4.3 µM

Question: What about the TGI [53] of the same compound?
Answer: > 100 µM

Question: What about the GI50 [54] of the same compound?
Answer: 13.2 µM

Question: What about the TGI [54] of the same compound?
Answer: > 100 µM

Question: And the GI50 [55]?
Answer: 0.374 µM

Question: And the TGI [55]?
Answer: > 93.6 µM

Question: What about the GI50 [56] of the same compound?
Answer: > 100 µM

Question: What about the TGI [56] of the same compound?
Answer: > 100 µM

Question: What about the GI50 [57] of the same compound?
Answer: > 21.9 µM

Question: What about the TGI [57] of the same compound?
Answer: > 100 µM

Question: And the GI50 [58]?
Answer: 0.899 µM

Question: What about the TGI [58] of the same compound?
Answer: > 100 µM
